Reference: paper PMC8482815, “Targeting Host Glycolysis as a Strategy for Antimalarial Development” (Frontiers in Cellular and Infection Microbiology, 2021)
Where “and” joins values, the source holds several entries; their conditions need not be identical. Identical values can stand only once.

Tested on: human erythrocytes
Experiment: Untargeted metabolomics and 13C-glucose tracing of enolase inhibitor treated erythrocytes
Type: cell-based
Details: 0h
Protocol: Freshly collected erythrocytes were washed, resuspended to 10% hematocrit in buffer [25mM HEPES (pH 7.4), 120mM NaCl, 5.4mM KCl, 1.8mM CaCl2, and 1mM NaH2PO4], incubated for 1 hour at 37°C, then centrifuged at 2000xg for 5 minutes at 4°C, resuspended in fresh wash buffer to 30-40% hematocrit, and split into 210µL aliquots of packed erythrocytes. […] All samples were incubated at 37°C shaking at 500 RPM. Triplicate samples of supernatants and packed erythrocytes were collected at 0, 0.5, 1, and 6-hour intervals and snap-frozen in liquid N2.
RBC and media samples were extracted at 1:10 and 1:20 dilutions, respectively, in 5:3:2 MeOH : MeCN:H2O v/v/v, and supernatants analyzed on a Thermo Vanquish UHPLC coupled to a Thermo Q Exactive mass spectrometer, as extensively described ([Nemkov et al., 2015]; [Nemkov et al., 2017]). The extraction buffer was supplemented with 40uM 3-^13C lactate to allow absolute quantification of lactate isotopologues, including lactate generated via glycolysis ([1,2,3-^13C3] enriched) vs. the pentose phosphate pathway ([2,3-^13C2] enriched), as described ([Reisz et al., 2016]). Metabolite assignments, peak area integration and isotopologues distributions were determined using Maven (Princeton University) ([Nemkov et al., 2015]; [Nemkov et al., 2017]).
Data were auto-scaled and normalized to zero-hour time points. Metabolites were removed from the dataset if greater than 50% of the samples contained missing values or the relative standard deviation among replicates exceeded 25%. Additionally, data was filtered using the interquartile range to reduce near-constant values from the experiment by 5%.
A principal component analysis of preprocessed data was plotted with the 95% confidence interval minimum volume enclosing ellipsoid for each respective group (MetaboAnalyst, cluster, plotly). A two-way repeated measures analysis of variance (ANOVA) was performed with multiple comparisons corrected for using a false discovery rate p-value cutoff of 0.05. Metabolite-Pathway analysis was performed using the R package of MetaboAnalyst, as previously described ([Xia and Wishart, 2010]). Metabolite-Protein nodal analysis was performed using omicsnet.ca and as previously described ([Zhou and Xia, 2018]).

[1] = treated erythrocytes, one value per replicate sample, polarity +
[2] = treated erythrocytes, one value per replicate sample, polarity -
[3] = treated erythrocytes, replicate samples

CC(C)(C)C(=O)OCOP(=O)(OCOC(=O)C(C)(C)C)C1CCCN(O)C1=O (stereo not shown) [POMHEX]
AMP level (metabolomics signal) (replicate samples): 2.43E+06 and 4.08E+06 and 2.38E+06
ATP level (metabolomics signal) (replicate samples): 7.62E+03 and 7.58E+03 and 9.00E+03
Adenine level (metabolomics signal) (replicate samples): 1.31E+05 and 1.38E+05 and 1.32E+05
Cytosine level (metabolomics signal) (replicate samples): 8.55E+04 and 2.38E+05 and 4.74E+05
L-alanine level (metabolomics signal) (replicate samples): 7.28E+06 and 6.97E+06 and 9.28E+06
L-arginine level (metabolomics signal) (replicate samples): 7.34E+06 and 1.51E+07 and 4.28E+06
L-asparagine level (metabolomics signal) (replicate samples): 3.07E+06 and 3.14E+06 and 2.95E+06
L-aspartate level (metabolomics signal) (replicate samples): 3.52E+07 and 3.22E+07 and 3.54E+07
L-cysteine level (metabolomics signal) (replicate samples): 4.11E+05 and 4.42E+05 and 1.93E+05
L-glutamate level (metabolomics signal) (replicate samples): 3.91E+07 and 3.64E+07 and 4.16E+07
L-glutamine level (metabolomics signal) (replicate samples): 3.51E+07 and 3.65E+07 and 2.77E+07
L-histidine level (metabolomics signal) (replicate samples): 1.77E+06 and 1.86E+06 and 1.64E+06
L-isoleucine level (metabolomics signal) (replicate samples): 0.00E+00 and 2.79E+07 and 2.01E+07
L-leucine level (metabolomics signal) (replicate samples): 1.13E+08 and 1.29E+08 and 1.02E+08
L-lysine level (metabolomics signal) (replicate samples): 3.76E+06 and 3.91E+06 and 3.34E+06
L-methionine level (metabolomics signal) (replicate samples): 1.20E+07 and 1.28E+07 and 9.77E+06
L-phenylalanine level (metabolomics signal) (replicate samples): 3.89E+06 and 5.35E+06 and 4.43E+06
L-proline level (metabolomics signal) (replicate samples): 3.87E+07 and 4.04E+07 and 2.78E+07
L-serine level (metabolomics signal) (replicate samples): 2.27E+06 and 2.30E+06 and 2.07E+06
L-threonine level (metabolomics signal) (replicate samples): 3.34E+06 and 3.50E+06 and 3.23E+06
L-tryptophan level (metabolomics signal) (replicate samples): 4.61E+06 and 3.92E+06 and 4.51E+06
L-tyrosine level (metabolomics signal) (replicate samples): 1.31E+07 and 1.44E+07 and 1.06E+07
L-valine level (metabolomics signal) (replicate samples): 1.25E+08 and 1.20E+08 and 1.19E+08
dCMP level (metabolomics signal) (replicate samples): 2.66E+04 and 2.57E+04 and 1.91E+04
dTMP level (metabolomics signal) (replicate samples): 1.47E+06 and 1.26E+06 and 9.65E+05
glycine level (metabolomics signal) (replicate samples): 1.29E+06 and 1.21E+06 and 1.30E+06
N-Acyl-D-aspartate (C06380) metabolite signal [1]: 2.82E+05 and 3.24E+05 and 2.89E+05
Poly-gamma-D-glutamate (C05723) metabolite signal [1]: 2.28E+07 and 2.38E+07 and 1.86E+07
D-Ribitol 5-phosphate (C01068) metabolite signal [2]: 1.18E+04 and 2.78E+04 and 2.55E+04
D-glucono-1,5-lactone (C00198) metabolite signal [2]: 7.35E+05 and 6.39E+05 and 6.34E+05
L-Noradrenaline (C00547) metabolite signal [2]: 2.10E+05 and 2.67E+05 and 1.54E+05
Oxalosuccinate (C05379) metabolite signal [2]: 1.80E+05 and 1.89E+05 and 1.75E+05
Pyridoxamine (C00534) metabolite signal [2]: 3.47E+04 and 2.11E+04 and 4.13E+04
Thioredoxin disulfide (C00343) metabolite signal [2]: 8.56E+04 and 8.74E+04 and 6.44E+04
1-4-beta-D-Xylan (metabolite signal) [3]: 2.75E+05 and 3.19E+05 and 2.60E+05
2-Hydroxyglutarate/Citramalate (C02630) metabolite signal [3]: 1.87E+05 and 1.44E+05 and 1.36E+05
5-6-Dihydrothymine (C00906) metabolite signal [3]: 3.37E+05 and 3.23E+05 and 2.70E+05
5-10-Methenyltetrahydrofolate (metabolite signal) [3]: 3.52E+05 and 3.49E+05 and 3.48E+05
5-Hydroxyisourate (C11821) metabolite signal [3]: 4.58E+06 and 4.14E+06 and 5.16E+06
5-L-Glutamyl-taurine (metabolite signal) [3]: 1.13E+05 and 1.05E+05 and 1.57E+05
5-Oxoproline (metabolite signal) [3]: 1.19E+06 and 1.09E+06 and 9.91E+05
(S)(+)-Allantoin (C02350) metabolite signal [3]: 4.00E+04 and 4.50E+04 and 4.43E+04
Allantoate (C00499) metabolite signal [3]: 3.63E+05 and 4.40E+05 and 2.26E+05
Ascorbate (metabolite signal) [3]: 1.03E+05 and 1.39E+05 and 1.05E+05
CMP-N-acetylneuraminate (metabolite signal) [3]: 3.22E+04 and 2.63E+04 and 3.17E+04
Carnosine (metabolite signal) [3]: 2.22E+05 and 1.73E+05 and 2.52E+05
Citrate (C00158) metabolite signal [3]: 2.73E+04 and 3.19E+04 and 2.59E+04
Creatine (metabolite signal) [3]: 2.64E+08 and 2.63E+08 and 2.96E+08
Creatinine (metabolite signal) [3]: 3.90E+06 and 3.59E+06 and 3.78E+06
Cys-Gly (metabolite signal) [3]: 1.91E+06 and 2.03E+06 and 2.13E+06
D-Glucosamine (metabolite signal) [3]: 6.56E+04 and 1.26E+05 and 1.11E+05
D-Glucose (C00031) metabolite signal [3]: 7.03E+06 and 7.96E+06 and 6.07E+06
D-Ribose (C00121) metabolite signal [3]: 2.42E+05 and 2.08E+05 and 2.00E+05
Dehydroascorbate (metabolite signal) [3]: 6.66E+03 and 1.26E+04 and 9.16E+03
Dihydrofolate (metabolite signal) [3]: 2.17E+06 and 2.08E+06 and 1.28E+06
Dimethylglycine (metabolite signal) [3]: 1.13E+06 and 1.12E+06 and 1.22E+06
Diphosphate (C00013) metabolite signal [3]: 2.29E+03 and 2.81E+03 and 1.30E+03
Fumarate (C00122) metabolite signal [3]: 1.70E+05 and 1.53E+05 and 1.29E+05
Glutathione (C00051) metabolite signal [3]: 1.29E+08 and 1.42E+08 and 1.45E+08
Glutathione disulfide (metabolite signal) [3]: 4.07E+05 and 2.99E+05 and 3.44E+05
Hypoxanthine (C00262) metabolite signal [3]: 1.23E+05 and 8.50E+04 and 1.07E+05
IMP (C00130) metabolite signal [3]: 2.07E+04 and 4.13E+04 and 2.42E+04
Inosine (C00294) metabolite signal [3]: 1.23E+05 and 1.19E+05 and 1.09E+05
L-Citrulline (metabolite signal) [3]: 2.18E+06 and 2.13E+06 and 2.77E+06
L-Homoserine (metabolite signal) [3]: 1.85E+05 and 2.19E+05 and 1.31E+05
Lactate (C01432) metabolite signal [3]: 7.44E+06 and 7.84E+06 and 7.12E+06
Malate (C00149) metabolite signal [3]: 4.07E+05 and 3.13E+05 and 3.03E+05
Mannitol (C00392) metabolite signal [3]: 1.01E+05 and 1.11E+05 and 1.22E+05
N-Acetylneuraminate (metabolite signal) [3]: 3.05E+04 and 3.27E+04 and 2.27E+04
N-Glycoloyl-neuraminate (metabolite signal) [3]: 2.02E+05 and 2.52E+05 and 1.61E+05
NAD+ (C00003) metabolite signal [3]: 3.20E+05 and 3.25E+05 and 4.11E+05
Nicotinamide (C00153) metabolite signal [3]: 2.56E+07 and 2.61E+07 and 2.89E+07
Ornithine (metabolite signal) [3]: 2.51E+06 and 2.56E+06 and 2.47E+06
Oxaloacetate (C00036) metabolite signal [3]: 4.82E+04 and 5.32E+04 and 4.35E+04
Phosphoserine (metabolite signal) [3]: 1.31E+05 and 1.59E+05 and 1.52E+05
Putrescine (metabolite signal) [3]: 5.04E+04 and 6.26E+04 and 7.87E+04
Pyridoxal (C00250) metabolite signal [3]: 5.06E+04 and 4.81E+04 and 5.68E+04
Pyruvate (C00022) metabolite signal [3]: 8.21E+05 and 7.91E+05 and 7.06E+05
S-Glutathionyl-L-cysteine (metabolite signal) [3]: 1.68E+05 and 1.57E+05 and 8.75E+04
Sedoheptulose 1-phosphate (C06222) metabolite signal [3]: 4.53E+04 and 4.14E+04 and 2.92E+04
Spermidine (metabolite signal) [3]: 9.43E+06 and 1.01E+07 and 9.63E+06
Spermine (metabolite signal) [3]: 8.86E+06 and 9.58E+06 and 9.08E+06
Succinate (C00042) metabolite signal [3]: 1.10E+05 and 1.06E+05 and 1.08E+05
Thymidine (C00214) metabolite signal [3]: 1.93E+04 and 1.39E+04 and 1.28E+04
UDP (C00015) metabolite signal [3]: 3.47E+05 and 4.31E+05 and 2.43E+05
UDP-N-acetyl-D-glucosamine (metabolite signal) [3]: 2.77E+04 and 2.13E+04 (2×)
UDP-glucose (C00029) metabolite signal [3]: 8.05E+04 and 6.15E+04 and 6.31E+04
Urate (C00366) metabolite signal [3]: 4.79E+04 and 4.62E+04 and 3.28E+04
Xanthine (C00385) metabolite signal [3]: 3.87E+05 and 3.78E+05 and 3.91E+05
alpha-D-Glucosamine 1-phosphate (metabolite signal) [3]: 1.72E+06 and 1.66E+06 and 2.32E+06
alpha-D-Ribose 1-phosphate (C00620) metabolite signal [3]: 1.60E+05 and 1.43E+05 and 1.11E+05
gamma-Glutamyl-gamma-aminobutyrate (metabolite signal) [3]: 8.08E+04 and 5.90E+04 and 1.10E+05
gamma-L-Glutamyl-D-alanine (metabolite signal) [3]: 2.48E+04 and 2.19E+04 and 1.85E+04
gamma-L-Glutamyl-L-cysteine (metabolite signal) [3]: 2.81E+04 and 3.64E+04 and 2.51E+04
